According to publication PMC9676923, “Characterization of relaxin 3 and its receptors in chicken: Evidence for relaxin 3 acting as a novel pituitary hormone” (Frontiers in Physiology, 2022):
Entries after “also recorded” stand apart in the source; their conditions may differ.

Experiments:
[1] = system: cRLN3 mRNA expression in cultured chicken pituitary cells; details: dihydrotestosterone 100 nM, 4 h/24 h; male chick pituitary cells; qPCR
Procedure: (§3) The primers (10 μM), dNTP (10 mM), easy Taq buffer, easy Taq DNA polymerase (TransGen Biotech), Eva Green (Biotium), MilliQ-H2O, and templates were mixed in a total volume of 20 μl. Then the reaction mix was conducted on the CFX96 Real-Time PCR Detection System (Bio-Rad). The amplification conditions included an initial denaturation for 10 min at 94°C followed by 20 s of denaturation at 94°C, 15 s annealing at 60°C, and 30 s extension at 72°C for 40 cycles.
To explore the regulatory effects of GnRH/CRH/E2/P4 on cRLN3, the anterior pituitaries isolated from 4-week-old female chicks were sliced and digested by 0.25% trypsin at 37°C for 20 min. The dispersed pituitary cells were cultured at a density of 5 × 10^5 cells/well in Medium 199 supplemented with 15% fetal bovine serum. Then, the medium was replaced with a serum-free M199 medium and the cells were incubated with GnRH (1–100 nM), CRH (0.1–10 nM), E2 (100 nM), and P4 (100 nM) for different duration times (4 h/24 h). […]
(§4) The relative mRNA levels of target genes were first calculated as the ratios to that of β-actin and then expressed as fold change (or the percentage) compared to their respective controls (chosen tissues). The data were analyzed by Student’s t-test (between two groups), or by one-way ANOVA followed by the Dunnett test in GraphPad Prism 7 (GraphPad Software, San Diego, CA).

[2] = system: cRLN3 mRNA expression in cultured chicken pituitary cells; experiment: cRLN3 mRNA expression (qPCR) in cultured pituitary cells of 4-week-old female chicks; type: cell-based
Procedure: as §3
To explore the regulatory effects of GnRH/CRH/E2/P4 on cRLN3, the anterior pituitaries isolated from 4-week-old female chicks were sliced and digested by 0.25% trypsin at 37°C for 20 min. The dispersed pituitary cells were cultured at a density of 5 × 10^5 cells/well in Medium 199 supplemented with 15% fetal bovine serum. Then, the medium was replaced with a serum-free M199 medium and the cells were incubated with GnRH (1–100 nM), CRH (0.1–10 nM), E2 (100 nM), and P4 (100 nM) for different duration times (4 h/24 h). […] The total RNA was then extracted from cultured pituitary cells and the expression of RLN3 and β-actin mRNA was assayed by qPCR.
as §4

[3] = system: CART; details: chicken pituitary, ref Cai et al., 2015, Mo et al., 2019; cited from earlier work
Excerpt: Till present, a total of five genes (LHB, FSHB, GRP, CART, and RLN3) have been detected to be abundantly expressed in chicken pituitary gonadotrope cells ([Mo et al., 2017]; [Zhang et al., 2021]). Although these genes concentrate on the same cell cluster, these genes vary in sexual distribution patterns, cell co-localization profiles, and the hypothalamus regulation networks. For example, RLN3 and GRP show an abundance in female gonadotrope cells while LHB, FSHB, and CART show a higher expression in male pituitary cells. In addition, all cells expressing RLN3 overlap with the cells expressing ...

[4] = molecular target: chicken relaxin family peptide 3 receptor (cRXFP3) (chicken)
[5] = molecular target: chicken relaxin family peptide 1 receptor (cRXFP1) (chicken)
[6] = system: relaxin family peptide 2 receptor (RXFP2); details: ref Kumagai et al., 2002; Hsu et al., 2003; cited from earlier work
Excerpt: (§1) As the typical member of the insulin superfamily, the RLNs bind their receptors to play their physiological roles. In mammals, RLN1 and RLN2 bind the relaxin family peptide 1 receptor (RXFP1) for downstream signaling ([Bathgate et al., 2013]). As their cognate receptor, RXFP1, which is also called the leucine-rich repeat-containing G-protein-coupled receptor 7 (LGR7), is capable of coupling to multiple G-proteins, thus triggering the pathways including cAMP accumulation ([Halls et al., 2006]; [Halls et al., 2007]; [Halls et al., 2009]), ERK1/2 phosphorylation, NO production, and other signalin ...

[7] = molecular target: chicken relaxin family peptide 1 receptor (cRXFP1) (chicken); remark: listed apart in the source
[8] = system: RXFP3; details: ref Liu et al., 2005; cited from earlier work
Excerpt: Although cRLN3 is able to activate both cRXFP1 and cRXFP3, the potency of cRLN3 for cRXFP1 activation is at least 10-fold higher than that for cRXFP3. […] The present study supports that chicken RLN3 is a functional analog of rhRLN3. However, our finding contrasts with that of mammalian species. […] The difference may result from ligand–receptor interaction mo ...

[9] = intraventricular (icv) injection, ref McGowan et al., 2008, 2014; cited from earlier work
Excerpt: (§2) Since GnRH is pulsed secreted and negatively regulated by CRH ([Ciechanowska et al., 2010]), the expression of RLN3 mRNA may be regulated by CRH. As the key player in the hypothalam ...

[10] = system: rat hypothalamic explants; details: ref McGowan et al., 2008, 2014; cited from earlier work
Excerpt: as §2

[11] = system: RXFP3; details: human RXFP3, Gαi/o coupled, ref Liu et al., 2003b, 2005, Bathgate et al., 2006, van der Westhuizen et al., 2007; cited from earlier work
Excerpt: as §1

[12] = system: RXFP1; details: ref Sudo et al., 2003, cited from earlier work
Excerpt: As the typical member of the insulin superfamily, the RLNs bind their receptors to play their physiological roles. In mammals, RLN1 and RLN2 bind the relaxin family peptide 1 receptor (RXFP1) for downstream signaling ([Bathgate et al., 2013]). […] However, only a dose-dependent increase in luciferase activity in HEK293 cells expressing chicken cRXFP1 is detected in the present study which is different from the report in mammalian species that RXFP1 is capable of coupling to Gs and other G-proteins (Gi/o), thus showing a biphasic pattern o ...

[13] = system: E2 production during follicular development; details: female teleost fish; ref Wilson et al., 2009; Yang et al., 2020; cited from earlier work
Excerpt: Supporting evidence also comes from the high expression of its cognate receptor (cRXFP1) in chicken tissues. Similar to rats, RXFP1 is highly expressed in the uterus involving uterine contractions ([Hsu et al., 2002]; [Vodstrcil et al., 2010]). In addition, cRXFP1 is also detected to be expressed highly in a wide range of female tissues (infundibulum, isthmus, uterus, and vagina), th ...

[14] = system: cRXFP1; experiment: pGL3-CRE-luciferase reporter (cAMP/PKA), HEK293 cells expressing cRXFP1; type: cell-based, chicken
Procedure: According to our previously established methods ([Liu et al., 2019]; [Jiang et al., 2022]), two cell-based luciferase reporter systems (pGL3-CRE-luciferase and pGL3-NFAT-RE-luciferase) were used to verify whether cRLN3cm is biologically active and capable of activating cRXFP1 and cRXFP3. In brief, HEK293 cells transiently expressing each receptor (cRXFP1 and cRXFP3) were treated with 30 μl serum-free medium containing cRLN3cm or pcDNAcm (0.001–10 μl) for 6 h, and the receptor-activated cAMP/PKA pathways and calcium mobilization were then monitored by pGL3-CRE-luciferase and pGL3-NFAT-RE-luciferase reporter systems, respectively. HEK293 cells expressing empty pcDNA3.1 (+) were used as a negative control.
To compare the functional difference between chicken RLN3 and human RLN3, recombinant human RLN3 (rhRLN3, 10^–12 to 10^–7 M, 6 h) was used to treat HEK293 cells expressing cRXFP1 or cRXFP3, respectively, and its potency in activating cRXFP1 and cRXFP3 was also evaluated.
To verify whether chicken RLN3 can activate RXFP1 or RXFP3, a cRLN3-conditioned medium (cRLN3cm, 0.001–10 μl) was used to treat HEK293 cells expressing cRXFP1/cRXFP3. Receptor activation was examined by pGL3-CRE-luciferase and pGL3-NFAT-RE-luciferase reporter systems established in our previous studies ([Liu et al., 2019]).

## C[C@]12CCC(=O)C[C@@H]1CC[C@@H]1[C@@H]2CC[C@]2(C)[C@@H](O)CC[C@@H]12 [DHT, dihydrotestosterone]
[1]
  effect of DHT on cRLN3 mRNA expression: could not affect the expression of cRLN3 mRNA

## Chicken gonadotropin-releasing hormone (QHWSYGLQPG; Gonadoliberin-1; UniProt P37042 24-33, looked up) [GnRH, synthesized using solid-phase Fmoc chemistry (GL Biochem, Shanghai, China)]
[2]; GnRH 10 nM, 4 h, qPCR, fold vs control
  effect of GnRH on cRLN3 mRNA expression, 4 h: slightly increase the expression of cRLN3 mRNA
[2]; GnRH 10 nM, 24 h, qPCR, fold vs control
  effect of GnRH on cRLN3 mRNA expression, 24 h: not able to further regulate the expression of cRLN3 mRNA
[2]; GnRH 1, 10, 100 nM, 4 h, qPCR, N = 4
  effect of GnRH on cRLN3 mRNA expression, dose response: could increase the expression level of cRLN3 mRNA in a dose-dependent manner; also recorded: could only weakly stimulate the mRNA expression of cRLN3
[3]
  regulation of CART, GnRH compared with CRH: equal potency

## CC(=O)[C@H]1CC[C@H]2[C@@H]3CCC4=CC(=O)CC[C@]4(C)[C@H]3CC[C@]12C [P4, progesterone]
[2]; progesterone 100 nM, 4 h/24 h, qPCR
  effect of P4 on cRLN3 mRNA expression: could not affect the expression of cRLN3 mRNA

## recombinant human relaxin 3 (rhRLN3) (ligand)
[4]
  EC50 of inhibition of forskolin-stimulated luciferase activity, cAMP/PKA pathway (pGL3-CRE-luciferase reporter) in HEK293 cells expressing cRXFP3; rhRLN3 10^-12 to 10^-7 M, 6 h: 0.0415 µM
[5]
  EC50 of activation, Ca2+ pathway (pGL3-NFAT-RE-luciferase reporter) in HEK293 cells expressing cRXFP1; rhRLN3 10^-12 to 10^-7 M, 6 h: 0.0211 µM
  EC50 of activation, cAMP/PKA pathway (pGL3-CRE-luciferase reporter) in HEK293 cells expressing cRXFP1; rhRLN3 10^-12 to 10^-7 M, 6 h: 0.00268 µM

## insulin-like peptide 3 [INSL3]
[6]
  RXFP2 downstream signaling: cAMP level increase and thymidine incorporation

## C[C@]12CC[C@@H]3c4ccc(O)cc4CC[C@H]3[C@@H]1CC[C@@H]2O [E2, 17β-estradiol]
[2]; 17β-estradiol 100 nM, 4 h, qPCR
  effect of E2 on cRLN3 mRNA expression, 4 h: could increase the expression level of cRLN3 mRNA; also recorded: found to increase the expression of cRLN3
[2]; 17β-estradiol 100 nM, 24 h, qPCR
  effect of E2 on cRLN3 mRNA expression, 24 h: could not regulate the mRNA expression of cRLN3

## chicken relaxin 3 (cRLN3), in conditioned medium of HEK293 cells transfected with the cRLN3 expression plasmid (ligand)
[7]
  potency of cRLN3cm in activating cRXFP1 relative to cRXFP3, pGL3-CRE-luciferase reporter in HEK293 cells: > 10 fold

## relaxin 3 [RLN3]
[8]
  potency on RXFP3 compared with RXFP1 in mammals: a higher potency for RXFP3 activation than for RXFP1
[9]
  plasma LH, ACTH and corticosterone levels: can also increase plasma LH, ACTH, and corticosterone levels
[10]
  release of GnRH and CRH from hypothalamic explants: can stimulate rat hypothalamic explants to release GnRH and CRH
[11]
  RXFP3, cAMP level on ligand binding: cAMP level decrease upon ligand binding
[12]; HEK293T cells
  RXFP1 activation, cAMP production: able to activate RXFP1 inducing a dose-dependent increase in cAMP production
[12]; mammals, Halls et al., 2006
  RXFP1 activation in mammals: RXFP1 can be activated by RLN3
[13]
  production of E2 during follicular development: promotes the production of E2 during follicular development

## chicken relaxin 3 [cRLN3]
[14]; HEK293 cells expressing cRXFP1 or cRXFP3
  potency on cRXFP1 compared with cRXFP3 (in words): cRXFP1 showed a higher binding potency with cRLN3 than cRXFP3
[14]; fold more potent on cRXFP1 than on cRXFP3, cRLN3cm, HEK293 cells
  potency in activating cRXFP1 relative to cRXFP3: at least 10 fold

## corticotropin-releasing hormone [CRH]
[2]; CRH 10 nM, 4 h and 24 h, qPCR, fold vs control
  effect of CRH on cRLN3 mRNA expression, time course: significantly increase the expression of cRLN3 mRNA in a time-dependent manner
[2]; CRH 0.1, 1, 10 nM, 24 h, qPCR, N = 4
  effect of CRH on cRLN3 mRNA expression, dose response: could increase the expression level of cRLN3 mRNA in a dose-dependent manner; also recorded: potently stimulates the expression of cRLN3 in a dose- and time-dependent manner
[2]; CRH 0.1–10 nM, 24 h vs GnRH 1–100 nM, 4 h
  stimulation of cRLN3 mRNA expression, CRH compared with GnRH: the stimulation effect of CRH was higher than that of GnRH
[3]
  regulation of CART, GnRH compared with CRH: equal potency
